Measurements published in PubChem BioAssay (NCI).
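Tested at 5 concentrations; 48 h exposure; 96-well plates; endpoints linearly interpolated, else capped at highest concentration. GI50 = concentration required for 50% inhibition of growth. TGI marks complete inhibition of growth.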

How the values were obtained:
Experiment in all cases: DTP human tumour cell line panel, 48 h
A549 NSCLC = tested on: A549 NSCLC
ACHN renal = tested on: ACHN renal
HL-60(TB) leukemia = tested on: HL-60(TB) leukemia
IGROV1 ovarian = tested on: IGROV1 ovarian
NCI-H460 lung = tested on: NCI-H460 lung
OVCAR-4 ovarian = tested on: OVCAR-4 ovarian
RPMI-8226 leukemia = tested on: RPMI-8226 leukemia
SF-295 CNS = tested on: SF-295 CNS
TK-10 renal = tested on: TK-10 renal
UACC-257 melanoma = tested on: UACC-257 melanoma

| Structure (SMILES) | GI50 (A549 NSCLC) [µM] | TGI (A549 NSCLC) [µM] | GI50 (ACHN renal) [µM] | TGI (ACHN renal) [µM] | TGI (HL-60(TB) leukemia) [µM] | GI50 (IGROV1 ovarian) [µM] | TGI (IGROV1 ovarian) [µM] | TGI (NCI-H460 lung) [µM] | GI50 (OVCAR-4 ovarian) [µM] | TGI (OVCAR-4 ovarian) [µM] | GI50 (RPMI-8226 leukemia) [µM] | TGI (RPMI-8226 leukemia) [µM] | GI50 (SF-295 CNS) [µM] | TGI (TK-10 renal) [µM] | GI50 (UACC-257 melanoma) [µM] | TGI (UACC-257 melanoma) [µM] | TGI (SF-295 CNS) [µM] | GI50 (HL-60(TB) leukemia) [µM] | GI50 (NCI-H460 lung) [µM] | GI50 (TK-10 renal) [µM] |
| --- | --- | --- | --- | --- | --- | --- | --- | --- | --- | --- | --- | --- | --- | --- | --- | --- | --- | --- | --- | --- |
| COc1ccc(C2=C(c3ccc(OC)c(OC)c3)C(=O)OC2)cc1 | 0.133 | > 100 | < 0.0135 | > 100 | 1.51 | 0.0768 | > 62.8 | > 100 | > 58.4 | > 100 | 0.0497 | 0.329 | < 0.0496 | 16.5 | > 47.4 | > 100 | – | – | – | – |
| COC1OC(C)C(O)CC1OS(=O)(=O)c1ccc(C)cc1 (stereo not given) | – | > 100 | – | > 100 | > 100 | – | > 100 | > 100 | – | > 100 | – | > 100 | – | > 100 | – | > 100 | > 100 | – | – | – |
| CCCCc1ccc(-n2c3nc(=O)n(C)c(=O)c-3nc3ccccc32)cc1 | – | 22 | – | 23.1 | 32.5 | – | 33.7 | 16.6 | – | 22 | – | 57 | – | 27.5 | – | 14.5 | 23.1 | – | – | – |
| NC1CCCCC1N.O=S(=O)([O-])CCCN1CCOCC1.O=S(=O)([O-])CCCN1CCOCC1.[Pt+4] | 4.72 | > 100 | 8.17 | > 100 | 19.7 | 18.1 | > 100 | > 100 | > 29.7 | > 100 | 1.05 | > 51.4 | 15.5 | > 100 | 54.6 | > 100 | > 100 | 4.81 | 3.54 | > 100 |
| Cc1ccc(-c2nc(N)nc3c2nnn3Cc2cccc(CO[C@H]3CCOC3)n2)o1 | > 100 | > 100 | > 100 | > 100 | > 100 | > 100 | > 100 | > 100 | 66.5 | > 100 | > 100 | > 100 | > 100 | > 100 | > 100 | > 100 | > 100 | > 100 | > 100 | > 100 |
| Cc1ccc(NC(=O)CC(=O)n2nc(-c3ccccc3)c(N=Nc3ccccc3Cl)c2-c2ccccc2)cc1 | – | > 100 | – | > 100 | > 100 | > 100 | > 100 | > 100 | – | 87.2 | > 100 | > 100 | – | > 100 | > 100 | > 100 | > 100 | 93.8 | – | – |
| C=CCN1C=CC(=O)[C@H](O[Si](C)(C)C(C)(C)C)[C@@H]1/C=C/c1ccccc1 | 16.8 | 50.3 | 15.5 | 29.2 | 20.2 | 17.1 | 34 | 23.8 | 11.6 | 24.7 | 13.6 | 45.2 | 9.9 | 28.5 | 17.9 | 37.2 | 24.9 | 3.36 | 8.38 | 14 |
| COc1cc(C(c2cc3c(cc2O)OCO3)N2CCCCC2)cc(OC)c1OC (stereo not given) | – | 45.8 | – | 31.1 | 4.16 | – | 32.4 | 45.8 | – | 25.2 | – | > 26.9 | – | 31.2 | – | 25.7 | > 100 | – | – | – |
| Cc1ccc(NC(=O)CCC/C(CC(=O)c2ccc(Br)cc2)=N/NC(=O)CC#N)cc1 | – | > 100 | – | > 100 | > 100 | – | > 100 | > 100 | – | > 100 | – | > 100 | – | > 100 | – | > 100 | > 100 | – | – | – |
| COC(=O)c1c2c(c(C)[n+]([O-])c1C)C(=O)C=C(NCc1ccc(OC)cc1)C2=O | 2.21 | 6.44 | 1.98 | 5.23 | 2.21 | 1.06 | 3.59 | 4.69 | 0.655 | 1.79 | 2.03 | 9.26 | 1.36 | 25.8 | 0.758 | 2.08 | 3.83 | 0.794 | 1.29 | 8.3 |
| C[C@]12CC[C@H](OCCC#N)CC1=CC[C@@H]1C2CC[C@]2(C)/C(=N/OCCC#N)CCC12 (stereo not given in full) | – | > 100 | – | > 100 | > 100 | – | > 100 | > 100 | – | 97.7 | – | > 100 | – | > 88.6 | – | > 100 | > 100 | – | – | – |
| O=C(Nc1ccc(F)cc1)C(=O)C(C1OC(=O)c2ccccc21)[N+](=O)[O-] (stereo not given) | – | > 100 | – | > 100 | > 100 | – | > 100 | > 100 | – | > 100 | – | > 100 | – | > 100 | – | > 100 | > 100 | – | – | – |
| O=C([CH-]C(=O)c1ccccc1)c1ccccc1.O=C([CH-]C(=O)c1ccccc1)c1ccccc1.O=C([CH-]C(=O)c1ccccc1)c1ccccc1.[OH3+].[Y+3] | 13.2 | 38.9 | 6.34 | 21.9 | 11.5 | 13.6 | 62.4 | 34.6 | 8.77 | 46 | 6.04 | 32.2 | 3.99 | 68.4 | 12 | 33.2 | 19.1 | 2.4 | 4.29 | 7.78 |
| c1cc(OCCN2CCCCC2)ccc1CNc1ccc2nc(CCC3CCCCC3)[nH]c2c1 | 2.54 | 7.06 | 2.2 | 5.4 | 3.78 | 2.32 | 6.59 | 3.97 | 2.8 | 12.3 | 1.49 | 3.71 | 1.98 | 8.26 | 1.91 | 3.89 | 3.88 | 1.79 | 1.94 | 2.9 |
| O=CN1N=C(c2ccc(Cl)cc2)CC1c1cccc(Nc2ccnc3cc(Cl)ccc23)c1 (stereo not given) | 2.03 | 94.2 | 2.64 | > 100 | 4.49 | 1.44 | > 100 | 11.9 | 0.638 | 16.7 | 0.611 | 4.19 | 0.504 | 21.1 | 1.47 | 20.9 | 9.75 | 1.27 | 1.86 | 2.34 |
| O=C(C[n+]1ccccc1)N=N/C(C(=O)Nc1c(Cl)c(O)c2ccccc2c1O)=C1/C(=O)Oc2cc(O)ccc2C1=O | – | 11 | – | 19.2 | > 100 | – | 14.7 | 8.36 | – | 8.84 | – | 54.6 | – | > 100 | – | 12.1 | 11.8 | – | – | – |
